# Laboratory results reported in patent publication US10226435B2, “Compositions and methods for restoring the stratum corneum and treating dermatological diseases” (New York University, priority 2011, dated 2019).
# What was measured:
# [1] = tested on: human transplanted pancreatic adenocarcinomas; conditions: growth of human transplanted pancreatic adenocarcinomas; cited from earlier work
# [2] = tested on: mouse skin gene expression; assay: Gene expression microarray analysis of mouse skin; format: in vivo; conditions: for loricrin and filaggrin and vascular endothelial growth factor (VEGF) genes / matrix metalloproteinases: ingestion, animal models; for inflammation genes induced by UVR: per os daily for 4 days in 30 microL droplets prior to irradiation
# Experimental: Animals for the histology and microarray analysis were euthanized 24 hours after 4 days of terpene pre-feed and the UVR exposure.
# Gene expression microarray analysis was performed as follows: RNA was extracted from a 0.1 g sample of mouse skin and an equal quantity of keratinocytes by using the TRIZOL reagent (Invitrogen, Carlsbad, Calif., USA) according to the manufacture's instructions and 200 μg of total RNA was used for the isolation of poly A+mRNA by using Oligotex mRNA mini columns (QIAGEN, Valencia, Calif., USA). The final centrifugation was performed after the incubation with 1/10 volume of 3.0 M NaOAc, 2.5 volumes of ethanol and 1 μl glycogen (Boehringer Mannheim GmbH, Mannheim, Germany) at −20° C. overnight. Then the pellet was resuspended in diethylpyrocarbonate (DEPC)-treated water. RNA was labeled with biotin and hybridized to a Mouse genome 430_2 GeneChip® microarray (Affymetrix, Inc. Santa Clara, Calif., USA). Data from the Affymetrix mouse expression array chip were imported into the BRB-ArrayTools Version 3.3.0 developed by the Biometric Research Branch of the U.S. National Cancer Institute for normalization and analysis. […] A value of P≤0.001 was chosen as statistically significant. […] For these calculations the entire list of genes on the Affymetrix (mouse 430_2) microarray was used as the reference list.
# Mice were treated with either UVR or UVR+beta-damascenone, and samples of tissue were removed from the dorsal skin for RNA extraction and analysis on an Affymetrix Microarray System utilizing mouse whole genome array chips Affy 430_2. The UVR sample served as the control in this preliminary experiment.
# [3] = tested on: skin of SKH1 hairless mice; assay: Sunburn (erythema) prevention by terpenes in UVR-exposed hairless mice; conditions: 4 daily 30 microL droplets per os before 15 minute exposure to 3.0 kJ/m2 UVR
# Experimental: All experiments were performed with female hairless mice (SKH1) utilizing solar spectrum ultraviolet radiation (UVR). Each experiment was performed in triplicate including controls and UVR-exposed mice and included a total of 22 mice per experiment for a total of 66 mice. The protocol included untreated mice, UVR-irradiated mice as controls for the terpene treatments, UVR+terpene mice and terpene-only mice.
# Four solar simulating FS-20 fluorescent lamps were used to deliver 3 kJ/m^2 measured by a calibrated International Light UV radiometer at the lamp distance between 20 to 24 cm. The UVR dose was selected to be just above the minimal erythemal dose for producing a ‘sunburn’ reaction in mouse skin (this is very similar to the minimal erythemal dose of fair-skinned humans).
# Each terpene was given to each mouse per os (by mouth) in 15-30 μL droplets (˜15-30 μg) via micropipette once each day for 4 consecutive days prior to and/or subsequent to UVR exposure. Animals were observed and photographed every 24 hours for a period of 6-7 days after the irradiation. Each terpene was administered in pure form.
# The UVR exposure of 3 kJ/m^2 was delivered seven (7) days after the last dose was administered. The animals were observed and photographed. […] Liponeate, a triglyceride fraction of coconut oil was used as a diluent. Concentration 1, 10 and 100% were tested. […]
# colon cancer = conditions: rats, 1,2-dimethylhydrazine induced, 8 mg/kg, p<0.01; cited from earlier work
# breast cancer = conditions: rats, ionizing radiation or DMBA; cited from earlier work
# skin inflammation = conditions: topical preventive treatment 3 days at 10 mg/kg/day before induction; cited from earlier work
# [4] = tested on: inflammation-relevant gene expression; conditions: rat skin, x-rays; cited from earlier work
# [5] = tested on: stratum corneum of Skh1 mouse skin; assay: Thickness of nucleated keratinocyte portion of epidermis versus stratum corneum, H&E histology; format: in vivo
# Source text: 1. Skin and epidermal thickness (as measured by histology);
# skin [6] = conditions: in vivo; cited from earlier work
# skin [7] = conditions: in vivo; cited from earlier work; remark: listed apart in the source
# [8] = in vivo; cited from earlier work
# [9] = tested on: dorsal skin of hairless mice; assay: β-damascenone-induced sunburn protection study in hairless mice; format: in vivo, mouse; conditions: read 5 days later
# Source text: The present experiment will be performed for evaluating the effectiveness and persistence of sunburn protection afforded by different doses and exposure regimens of a test terpene, β-damascenone. Female SKH-1 strain mice, obtained from Charles River Breeding Labs, Wilmington, Mass., will be fed per os various amounts of the terpene as indicated in the following Tables 4 and 5.
# [10] = Group 2, 20 μL ×1 oral, section 1 d after final administration, total 20 μL
# [11] = Group 3, 10 μL ×4 oral, section 1 d after final administration, total 40 μL
# [12] = Group 4, 20 μL ×4 oral, section 1 d after final administration, total 80 μL
# [13] = Group 5, 80 μL ×1 oral, section 1 d after final administration, total 80 μL
# [14] = Group 6, 20 μL ×1 oral, section 5 d after final administration, total 20 μL
# [15] = Group 7, 10 μL ×4 oral, section 5 d after final administration, total 40 μL
# [16] = Group 8, 80 μL ×1 oral, section 5 d after final administration, total 80 μL
# [17] = Group 9, 20 μL ×4 oral, section 5 d after final administration, total 80 μL
# [18] = Group 10, 10 μL ×4 oral, section 12 d after final administration, total 40 μL
# [19] = Group 11, 20 μL ×4 oral, section 12 d after final administration, total 80 μL
# [20] = day 5 after the exposures were completed
# [21] = UVR+beta-damascenone relative to UVR only
# [22] = Group 2, 20 uL × 4 by feeding tube, UVR 1.5 kJ/m^2 5 days after final dose
# [23] = Group 3, 10 uL × 4 by feeding tube, UVR 1.5 kJ/m^2 5 days after final dose
# [24] = Group 4 (replication of group 2), 20 uL × 4 by feeding tube, UVR 1.5 kJ/m^2 5 days after final dose
# [25] = Group 5, 10 uL × 1 by feeding tube, UVR 1.5 kJ/m^2 5 days after dose
# [26] = Group 6, 20 uL × 1 by feeding tube, UVR 1.5 kJ/m^2 5 days after dose
# [27] = Group 7, 40 uL × 1 by feeding tube, UVR 1.5 kJ/m^2 5 days after dose
# [28] = Groups 2 + 4 combined, 20 uL × 4, UVR 1.5 kJ/m^2 5 days after final dose
compound,measurement,setting,value
CC(C)=CCC/C(C)=C/CO [Geraniol],effectiveness relative to perillyl alcohol,[1],about 5 fold
C=C(C)[C@@H]1CCC2=CC(=O)C[C@@H](C)[C@]2(C)C1 [nootkatone],loricrin and filaggrin and vascular endothelial growth factor (VEGF) genes,[2],upregulation
same,matrix metalloproteinases,[2],downregulation
same,inflammation genes induced by UVR,[2],blocked
same,cutaneous inflammation and erythema after UVR,[3],blocked
Oc1ccc(C=Cc2cc(O)cc(O)c2)cc1 [resveratrol],inhibition of colon cancer,colon cancer,67%
C=C(C)[C@H]1CC=C(C)CC1 [d-limonene],initiation of breast cancer,breast cancer,almost completely prevented
"C=C(C)[C@@H]1CC=C(CO)CC1 [perillyl alcohol, reference compound]",initiation of breast cancer,breast cancer,almost completely prevented
same,effect on skin inflammation,skin inflammation,significant effect
vitamin A,inflammation-relevant gene expression alterations blocked,[4],about 80%
C/C=C/C(=O)C1=C(C)C=CCC1(C)C [beta-damascenone],Living Epidermis Thickness,[5]; Average (Groups 2-11),34.6 arbitrary units
same,Stratum Corneum Thickness,[5]; Average (Groups 2-11),21.0 arbitrary units
same,Living Epidermis Thickness,[5]; [10],35.0 arbitrary units
same,Stratum Corneum Thickness,[5]; [10],20.0 arbitrary units
same,Living Epidermis Thickness,[5]; [11],37.0 arbitrary units
same,Stratum Corneum Thickness,[5]; [11],15.3 arbitrary units
same,Living Epidermis Thickness,[5]; [12],36.0 arbitrary units
same,Stratum Corneum Thickness,[5]; [12],17.8 arbitrary units
same,Living Epidermis Thickness,[5]; [13],36.0 arbitrary units
same,Stratum Corneum Thickness,[5]; [13],16.3 arbitrary units
same,Living Epidermis Thickness,[5]; [14],38.5 arbitrary units
same,Stratum Corneum Thickness,[5]; [14],37.0 arbitrary units
same,Living Epidermis Thickness,[5]; [15],40.2 arbitrary units
same,Stratum Corneum Thickness,[5]; [15],20.2 arbitrary units
same,Living Epidermis Thickness,[5]; [16],36.2 arbitrary units
same,Stratum Corneum Thickness,[5]; [16],25.5 arbitrary units
same,Living Epidermis Thickness,[5]; [17],32.5 arbitrary units
same,Stratum Corneum Thickness,[5]; [17],21.2 arbitrary units
same,Living Epidermis Thickness,[5]; [18],30.7 arbitrary units
same,Stratum Corneum Thickness,[5]; [18],18.7 arbitrary units
same,Living Epidermis Thickness,[5]; [19],23.3 arbitrary units
same,Stratum Corneum Thickness,[5]; [19],21.7 arbitrary units
same,nucleated keratinocytes in the epidermis,[5]; [20],no corresponding increase
same,thickness of the stratum corneum,[5]; [20],highly significant increases
same,stratum corneum thickness (FIG. 4),"[5]; mouse, in vivo",consistently thickened
same,skin irritation,skin [6],No skin irritation
same,phototoxicity or photoallergenity,skin [7],No phototoxicity or photoallergenity
same,inflammation-relevant genes,[2]; [21],strongly down-regulated
same,number of gene categories significantly (p<0.05) down-regulated,[2]; [21],13
same,only significantly (p<0.05) altered up-regulated category at level 4 of Gene Ontology Tree,[2]; [21],epidermal cell differentiation
same,loricrin and filaggrin and vascular endothelial growth factor (VEGF) genes,[2],upregulation
same,matrix metalloproteinases,[2],downregulation
same,inflammation genes induced by UVR,[2],blocked
same,LD50,[8],greater than 2.0 g/kg
same,Areas with no sunburn,[9]; [22],11.0
same,Areas with sunburn,[9]; [22],1.0
same,Areas with no sunburn,[9]; [23],6.0
same,Areas with sunburn,[9]; [23],2.0
same,Areas with no sunburn,[9]; [24],8.0
same,Areas with sunburn,[9]; [24],0.0
same,Areas with no sunburn,[9]; [25],7.0
same,Areas with sunburn,[9]; [25],5.0
same,Areas with no sunburn,[9]; [26],10.0
same,Areas with sunburn,[9]; [26],2.0
same,Areas with no sunburn,[9]; [27],3.0
same,Areas with sunburn,[9]; [27],1.0
same,Areas with no sunburn,[9]; [28],19.0
same,Areas with sunburn,[9]; [28],1.0
same,cutaneous inflammation and erythema after UVR,[3],blocked
